In patent US20150105252A1, “SUBSTITUTED PYRAZOLES AS HERBICIDES” (E I DU PONT DE NEMOURS AND COMPANY, priority 2013, published 2015):

Key:
foxtail, giant = test: Test C preemergence; type: in vivo, Setaria faberii; conditions: preemergence; for Plant response rating, Foxtail, Giant: 125 g ai/ha, scale 0 to 100, 0 = no effect, 100 = complete control
Summary of the method: (§1)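 Postemergence values come from plants sprayed at the 1- to 4-leaf stage (2–18 cm) in peat moss–vermiculite medium; preemergence values from seeds treated in a loam–sand blend. Both evaluated visually against controls after 13–15 greenhouse days, scale 0–100.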

ragweed [1] = test: Test C preemergence; type: in vivo, Ambrosia elation; conditions: preemergence; for Plant response rating, Ragweed: 125 g ai/ha, scale 0 to 100, 0 = no effect, 100 = complete control
Summary of the method: as §1

barnyardgrass = test: Test B flood; type: in vivo, Echinochloa crus-galli; conditions: 250 g ai/ha, visual rating on 0 to 100 scale (0 no effect, 100 complete control), 13 to 15 days
Summary of the method: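 Plants were grown to the 2-leaf stage, then pots were flooded to 3 cm above the soil and compounds were applied directly into the paddy water. Water depth was held for the whole test; after 13 to 15 days in a greenhouse, injury was visually rated against untreated controls (0 = no effect, 100 = complete control).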

kochia = test: Test C postemergence; type: in vivo, Kochia scoparia; conditions: for Plant response rating (scale of 0 to 100 where 0 is no effect and 100 is complete control), Kochia: Postemergence, 31 g ai/ha, visually evaluated after 13 to 15 days; for Kochia plant response rating / Plant response rating, Kochia: postemergence; for Kochia plant response rating: 62 g ai/ha, scale 0 to 100
Summary of the method: as §1

oilseed rape [2] = test: Test C postemergence; type: in vivo, Brassica napus; conditions: postemergence; for Oilseed Rape plant response rating: 62 g ai/ha, scale 0 to 100
Summary of the method: as §1

pigweed [3] = test: Test C preemergence; type: in vivo, Amaranthus retroflexus; conditions: preemergence; for Plant response rating, Pigweed: 125 g ai/ha, scale 0 to 100, 0 = no effect, 100 = complete control
Summary of the method: as §1

pigweed [4] = test: Test A preemergence; type: in vivo, Amaranthus retroflexus; conditions: preemergence; for Pigweed plant response rating (0 to 100 scale): 125 g ai/ha, visual injury approx. 10 days after treatment; for Pigweed plant response rating: 500 g ai/ha, visual injury after approx. 10 days, 0 to 100 scale (0 no effect, 100 complete control)
Summary of the method: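 Both timings tested concurrently in loam/sand soil: preemergence by directed soil spray, postemergence on plants of 2–10 cm at the one- to two-leaf stage. Greenhouse holding period was approximately 10 days before visual injury assessment (0–100, 0 = no effect).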

soybean = test: Test C postemergence; type: in vivo, Glycine max; conditions: postemergence; for Plant response rating, Soybean: 250 g ai/ha, scale 0 to 100 (0 no effect, 100 complete control); for Soybean plant response rating: 125 g ai/ha, scale 0 to 100, 0 no effect, 100 complete control
Summary of the method: as §1

ragweed [5] = test: Test C postemergence; type: in vivo, Ambrosia elation; conditions: postemergence
Summary of the method: as §1

oat, wild = test: Test C postemergence; type: in vivo, Avena fatua; conditions: for Plant response rating (scale of 0 to 100 where 0 is no effect and 100 is complete control), Oat, Wild: Postemergence, 31 g ai/ha, visually evaluated after 13 to 15 days; for Oat, Wild plant response rating / Plant response rating, Oat, Wild: postemergence; for Oat, Wild plant response rating: 62 g ai/ha, scale 0 to 100
Summary of the method: as §1

oilseed rape [6] = test: Test C preemergence; type: in vivo, Brassica napus; conditions: preemergence; for Plant response rating, Oilseed Rape: 125 g ai/ha, scale 0 to 100, 0 = no effect, 100 = complete control
Summary of the method: as §1

nutsedge, yellow = test: Test C postemergence; type: in vivo, Cyperus esculentus; conditions: for Plant response rating (scale of 0 to 100 where 0 is no effect and 100 is complete control), Nutsedge, Yellow: Postemergence, 31 g ai/ha, visually evaluated after 13 to 15 days; for Nutsedge, Yellow plant response rating / Plant response rating, Nutsedge, Yellow: postemergence; for Nutsedge, Yellow plant response rating: 62 g ai/ha, scale 0 to 100
Summary of the method: as §1

[7] = 31 g ai/ha, visual rating, scale 0 to 100 (0 no effect, 100 complete control), 13 to 15 days
[8] = 62 g ai/ha, scale 0 to 100 (0 no effect, 100 complete control), 13 to 15 days
[9] = 250 g ai/ha, scale 0 to 100, 0 is no effect, 100 is complete control
[10] = 250 g ai/ha, scale 0 to 100 (0 no effect, 100 complete control)
[11] = 125 g ai/ha, scale 0 to 100, 0 no effect, 100 complete control

| Structure (SMILES) | Foxtail, Giant plant response rating (foxtail, giant; [7]) | Foxtail, Giant plant response rating (foxtail, giant; [8]) | Plant response rating, Foxtail, Giant (foxtail, giant; 13 to 15 days) | Foxtail, Giant plant response rating (foxtail, giant; [9]) | Ragweed plant response rating (ragweed [1]; [7]) | Ragweed plant response rating (ragweed [1]; [8]) | Plant response rating, Ragweed (ragweed [1]; 13 to 15 days) | Ragweed plant response rating (ragweed [1]; [9]) | Plant response rating, Barnyardgrass (barnyardgrass) | Plant response rating (scale of 0 to 100 where 0 is no effect and 100 is complete control), Kochia (kochia) | Kochia plant response rating (kochia) | Plant response rating, Kochia (kochia; [10]) | Plant response rating, Kochia (kochia; [11]) | Oilseed Rape plant response rating (oilseed rape [2]) | Plant response rating, Oilseed Rape (oilseed rape [2]; [10]) | Plant response rating, Oilseed Rape (oilseed rape [2]; [11]) | Pigweed plant response rating (pigweed [3]; [7]) | Pigweed plant response rating (pigweed [3]; [8]) | Plant response rating, Pigweed (pigweed [3]; 13 to 15 days) | Pigweed plant response rating (pigweed [3]; [9]) | other results |
| --- | --- | --- | --- | --- | --- | --- | --- | --- | --- | --- | --- | --- | --- | --- | --- | --- | --- | --- | --- | --- | --- |
| CCCc1cc(C(=O)NC(C)C)nn1Cc1ccnc(C(F)(F)F)c1 [Compound 186] | 100 | 100 | 100 | 100 | 75 | 100 | 95 | 98 | 75 | 80 | 85 | 95 | 90 | 60 | 85 | 80 | 100 | 100 | 100 | 100 | Pigweed plant response rating (0 to 100 scale) (pigweed [4]): 0; Pigweed plant response rating (pigweed [4]): 0; Plant response rating, Soybean (soybean): 95; Soybean plant response rating (soybean): 95; Plant response rating, Ragweed (ragweed [5]; [10]): 70; Plant response rating, Ragweed (ragweed [5]; [11]): 55; Plant response rating (scale of 0 to 100 where 0 is no effect and 100 is complete control), Oat, Wild (oat, wild): 10; Oat, Wild plant response rating (oat, wild): 35; Plant response rating, Oat, Wild (oat, wild; [10]): 80; Plant response rating, Oat, Wild (oat, wild; [11]): 35; Oilseed Rape plant response rating (oilseed rape [6]; [7]): 100; Oilseed Rape plant response rating (oilseed rape [6]; [8]): 100; Plant response rating, Oilseed Rape (oilseed rape [6]; 13 to 15 days): 100; Oilseed Rape plant response rating (oilseed rape [6]; [9]): 95; Plant response rating (scale of 0 to 100 where 0 is no effect and 100 is complete control), Nutsedge, Yellow (nutsedge, yellow): 5; Nutsedge, Yellow plant response rating (nutsedge, yellow): 5; Plant response rating, Nutsedge, Yellow (nutsedge, yellow; [10]): 15; Plant response rating, Nutsedge, Yellow (nutsedge, yellow; [11]): 5 |
| CCOc1cc(C(=O)NOC(C)C)nn1Cc1ccnc(C(F)(F)F)c1 [Compound 153] | 60 | 85 | 100 | 100 | 50 | 95 | 98 | 98 | 45 | 50 | 70 | 90 | 85 | 25 | 45 | 40 | 20 | 95 | 100 | 98 | Pigweed plant response rating (0 to 100 scale) (pigweed [4]): 100; Pigweed plant response rating (pigweed [4]): 100; Plant response rating, Soybean (soybean): 40; Soybean plant response rating (soybean): 35; Plant response rating, Ragweed (ragweed [5]; [10]): 85; Plant response rating, Ragweed (ragweed [5]; [11]): 40; Plant response rating (scale of 0 to 100 where 0 is no effect and 100 is complete control), Oat, Wild (oat, wild): 5; Oat, Wild plant response rating (oat, wild): 10; Plant response rating, Oat, Wild (oat, wild; [10]): 20; Plant response rating, Oat, Wild (oat, wild; [11]): 5; Oilseed Rape plant response rating (oilseed rape [6]; [7]): 60; Oilseed Rape plant response rating (oilseed rape [6]; [8]): 95; Plant response rating, Oilseed Rape (oilseed rape [6]; 13 to 15 days): 95; Oilseed Rape plant response rating (oilseed rape [6]; [9]): 95; Plant response rating (scale of 0 to 100 where 0 is no effect and 100 is complete control), Nutsedge, Yellow (nutsedge, yellow): 5; Nutsedge, Yellow plant response rating (nutsedge, yellow): 5; Plant response rating, Nutsedge, Yellow (nutsedge, yellow; [10]): 15; Plant response rating, Nutsedge, Yellow (nutsedge, yellow; [11]): 20 |
